Measured values published in the NIST ThermoML archive (doi:10.1016/j.jct.2015.10.002).

Test: mn = molality of the nth substance listed, in mol/kg
Details: 101.3 kPa, Liquid; for viscosity: Capillary tube (Ostwald / Ubbelohde) method; for mass density: Vibrating tube method

OC[C@@H](O)[C@@H](O)[C@H](O)[C@@H](O)CO [D-sorbitol] + O
Details | mass density, m1 = 0.2 [kg/m3] | mass density, m1 = 0.4 [kg/m3] | mass density, m1 = 0.6 [kg/m3] | mass density, m1 = 0.8 [kg/m3] | mass density, m1 = 1 [kg/m3] | viscosity, m1 = 0.2 [mPa·s] | viscosity, m1 = 0.4 [mPa·s] | viscosity, m1 = 0.6 [mPa·s] | viscosity, m1 = 0.8 [mPa·s] | viscosity, m1 = 1 [mPa·s]
293.15 K | 1010.61 | 1022.43 | 1033.64 | 1044.32 | 1054.54 | 1.099 | 1.203 | 1.319 | 1.453 | 1.592
303.15 K | 1007.87 | 1019.5 | 1030.53 | 1041.07 | 1051.08 | 0.87 | 0.944 | 1.034 | 1.122 | 1.233
313.15 K | 1004.3 | 1015.77 | 1026.67 | 1037.06 | 1046.99 | 0.708 | 0.766 | 0.829 | 0.903 | 0.977
323.15 K | 999.96 | 1011.33 | 1022.12 | 1032.4 | 1042.26 | 0.588 | 0.634 | 0.686 | 0.738 | 0.797
